These results are taken from article PMC11409218, “Metal(triphenylphosphine)-atovaquone Complexes: Synthesis, Antimalarial Activity, and Suppression of Heme Detoxification” (Inorganic Chemistry, 2024).

In assay [1] the test system is 3D7 strain of P. falciparum. The experiment in a line: Coincubation of ATV with metal precursors, parasite growth inhibition (Figure 3C). In kind it is cell-based, Plasmodium falciparum. The conditions noted are these: ATV 1.0 nM, [Au(PPh3)Cl] and [Cu(PPh3)2NO3] at 1000 nM. Here is the method: Figure 3 (A) Antiplasmodial activity of the compounds against the 3D7 strain of P. falciparum. (B) Cytotoxicity against the J774 cell line. In both cases, the compounds were diluted in cell culture and incubated for 0 or 72 h before use in the assays. […] In panels A and C, parasite viability was measured by HRP2 ELISA-based assay, and IC50 values were calculated. In panel B, cell viability was measured by CellTiter-Glo, and IC50 values were calculated. In panels A and B, the values are the mean and standard deviation of two independent experiments, using each concentration of compounds in duplicate. In panel C, the values are the mean and standard deviation of one experiment, using each concentration of compounds in quadruplicate. *p < 0.05; indicating significant difference by Student’s t test.
After ascertaining the existence of an association between the reactivity of the metal complexes and their pharmacological activity, we decided to evaluate whether they could be generated in situ upon coincubation of ATV and the respective metal precursors in the cell culture medium. In this set of experiments, ATV was added at 1.0 nM, while the metal precursors of gold(I) [Au(PPh3)Cl] and copper(I) [Cu(PPh3)2NO3] were added at 1000 nM (Figure 3C).

Assay [2] concerns β-hematin crystal formation. Description: β-Hematin crystal formation by FTIR spectroscopy. In kind it is biochemical. The conditions noted are these: acid-buffered medium pH 5; 1:3 hematin/compound ratio. Here is the method:
The ability of these compounds to inhibit the formation of β-hematin crystals was investigated by IR spectroscopy (Figure 2f). Of note, β-hematin crystal formation was assayed in an acid-buffered medium, while hemin titration was assayed at neutral pH. […]. For both ATV and complexes 1–3, there may have been overlapping between a decrease in the (C = O) band of heme species and a (C = O) band of quinone. However, there was no danger of overlaps in the (C–O) band of heme species at 1210 cm^–1, since these species are absent from the drugs.
The conversion of hematin into β-hematin crystals was determined by FTIR spectroscopy as described previously.[52] In a microtube, 20 mg hemin and three equivalents of the compounds were dissolved in 3 mL 0.1 M NaOH solution and stirred for 30 min at 60 °C. Then, 0.3 mL 0.1 M HCl and 1.7 mL sodium acetate buffer (10 M, pH 5) were added at the same temperature. […] After incubation for 120 min, the reaction mixture was cooled on ice for 10 min and then centrifuged and washed with water to remove salts. Resulting crystals were dried and IR spectra were obtained using ATR mode.[66]−[68]

For `O=C1C(O)=C([C@H]2CC[C@H](c3ccc(Cl)cc3)CC2)C(=O)c2ccccc21` [ATV, atovaquone], in assay [1], the “parasite growth inhibition of ATV in the absence or presence of metal precursors” value is given as “did not observe a difference”. For the same compound, in assay [2], the “inhibition of β-hematin crystal formation (IR bands 1663 and 1210 cm^–1)” value was “unable to inhibit β-hematin crystal formation”.
